Measurements taken from paper PMC10784468 (Nature Communications, 2024).
Positions of bridges follow the written chain, without caps; N, C: chain ends. Residues, ends and D or L forms follow the SMILES beside them. *: point of attachment. X1 = O=C(O)c1ccc(-c2c3nc(c(-c4ccc(C(=O)O)cc4)c4ccc([nH]4)c(-c4ccc(C(=O)*)cc4)c4nc(c(-c5ccc(C(=O)O)cc5)c5ccc2[nH]5)C=C4)C=C3)cc1; X2 = O=C(O)C/C(=C/C(=O)*)C(=O)O

Experiments:
[1] = Critical aggregation concentration (pyrene probe, I338/I335); format: physicochemical; settings: for I338/I335 (pyrene): pyrene 6 μM, emission 393 nm
Description: The CACs were determined using pyrene as a fluorescent probe. In brief, 50 μL of pyrene solution in acetone (480 μM) was added to a 5 mL centrifuge tube, followed by adding a series of peptide-porphyrin conjugate solutions with different concentrations, and the tube was kept overnight to evaporate the acetone completely, the concentration of pyrene being fixed at 6 μM at last. The excitation spectra of the solutions were recorded with the emission wavelength fixing at 393 nm, and the intensity ratio (I338/I335) was calculated as a function of the concentration. The CAC was determined based on the intersection point at low concentration on the plot.

Particle size by DLS = format: physicochemical
Description: Nano-ZS 3600 (Malvern Instruments, UK) was used to measure the size distribution of the peptide-porphyrin conjugate solutions. The conjugate solutions (40 μM) were incubated at pH 7.4 or pH 6.5 before measurements. An average value was determined by three repeated measurements at 25 °C for each sample. Besides, transmission electron microscopy (TEM, Tecnai G2 20 S-TWIN) was conducted to observe the morphology and diameters of conjugates in aqueous solution, The conjugates (50 μL, 40 μM) were kept in PB solution at pH 7.4 or pH 6.5, which were dropped on copper meshes. After 5 min, unnecessary liquid was removed and the uranyl acetate solution (10 μL) was dropped on this copper mesh to stain the samples for 10 min. Finally, the copper meshes were washed with deionized water, and dried at room temperature for observation.

GPX4 protein = test: Microscale Thermophoresis (MST) ligand binding; settings: labelled GPX4
Description: Initially, GPX4 was labeled using Protein Labeling Kit RED-NHS according to the manufacturer’s instructions to investigate the binding affinity of Gi-F-CAA, Gi-F and NGi-F-CAA with GPX4 protein. Afterward, the labelled GPX4 protein was incubated with series of Gi-F-CAA, Gi-F and NGi-F-CAA concentration gradients. Finally, the prepared samples were loaded into silica capillaries and measured with Monolish NT.115. Apparent Kd represented the affinity of assemblies rather than a single molecule. Bovine serum albumin (BSA) was used as control for calculating the apparent binding affinity between Gi-F (nanoparticle) to GPX4 protein. Briefly, as the diameter of nanoparticle is proportional to the molecular weight, according to the reported bovine serum albumin (BSA) protein size and molecular weight (7.2 nm, 66.43 KDa), the molecular weight of Gi-F nanoparticle with an average 78 nm size can be calculated to be […]. The monomer amount Gi-F nanoparticle was calculated as […].

EJ cells [2] = test: Intracellular GSH content detection; format: cell-based
Description: (§1) Initially, EJ cells (5 × 10^5) were cultured in 6-well plate with a CO2 incubator overnight at 37 °C. […] Next, EJ cells were collected and washed with PBS for 3 times. Afterwards, the cell lysates were collected by centrifugation at 8000 g for 10 min at 4 °C after lysed by freeze-thaw treatment. Finally, the GSH contents were measured with a GSH Assay Kit based on the manufacturer’s instructions.

EJ cells [3] = test: Intracellular LPO content (MDA kit); format: cell-based
Description: as §1, with “the LPO” for “the GSH”, “measured by thiobarbituric acid (TBA) reaction” for “measured”, “a Malondialdehyde (MDA)” for “a GSH”

GPX4 = biological target: T1, GPX4 (Homo sapiens, UniProt P36969); test: Intracellular GPX4 activity detection; format: cell-based; set-up: endogenous in cells; host or cells: EJ bladder cancer cells
T1 sequence (P36969 1-197): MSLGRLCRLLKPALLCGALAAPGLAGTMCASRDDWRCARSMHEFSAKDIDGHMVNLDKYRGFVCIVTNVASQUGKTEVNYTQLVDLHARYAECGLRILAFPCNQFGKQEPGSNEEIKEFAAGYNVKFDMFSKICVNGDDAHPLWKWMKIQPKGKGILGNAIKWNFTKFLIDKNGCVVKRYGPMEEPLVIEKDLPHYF
Description: as §1, with “5000 rpm” for “8000 g”, “ultrasonic lysis in an ice bath.” for “lysed by freeze-thaw treatment.”, “GPX4 activity” for “GSH contents”, “GPX” for “GSH”

Structure (SMILES): CC(C)C[C@H](NC(=O)c1ccc(-c2c3nc(c(-c4ccc(C(=O)O)cc4)c4ccc([nH]4)c(-c4ccc(C(=O)O)cc4)c4nc(c(-c5ccc(C(=O)O)cc5)c5ccc2[nH]5)C=C4)C=C3)cc1)C(=O)N[C@@H](CCCCNC(=O)/C=C(/CC(=O)O)C(=O)O)C(=O)N[C@@H](CC(C)C)C(=O)N[C@@H](CCCCN)C(=O)N[C@@H](CC(C)C)C(=O)N[C@@H](CCCCNC(=O)/C=C(/CC(=O)O)C(=O)O)C(=O)NCC(=O)N[C@@H](C)C(=O)N[C@H]1CSSC[C@@H](C(=O)N2CCC[C@H]2C(=O)N[C@H](C(=O)O)C(C)C)NC(=O)[C@@H]2CCCN2C(=O)[C@H](Cc2ccc(O)cc2)NC(=O)[C@H](CC(C)C)NC(=O)[C@@H]2CCCN2C(=O)[C@H](CC(C)C)NC(=O)[C@H](Cc2c[nH]c3ccccc23)NC(=O)[C@H](CC(N)=O)NC1=O [Gi-F-CAA] (X1-LK(X2)LKLK(X2)GACNWLPLYPCPV-OH; disulfide 9-17; C-terminus assumed)
- I338/I335 (pyrene) ([1]; conjugate 0.97656 μM): 0.974
- I338/I335 (pyrene) ([1]; conjugate 1.95313 μM): 0.9716
- I338/I335 (pyrene) ([1]; conjugate 3.90625 μM): 0.9744
- I338/I335 (pyrene) ([1]; conjugate 7.8125 μM): 0.9774
- I338/I335 (pyrene) ([1]; conjugate 15.625 μM): 0.9762
- I338/I335 (pyrene) ([1]; conjugate 31.25 μM): 0.9729
- I338/I335 (pyrene) ([1]; conjugate 62.5 μM): 0.9783
- I338/I335 (pyrene) ([1]; conjugate 125 μM): 0.9903
- I338/I335 (pyrene) ([1]; conjugate 250 μM): 1.02
- I338/I335 (pyrene) ([1]; conjugate 500 μM): 1.0656
- I338/I335 (pyrene) ([1]; conjugate 1000 μM): 1.12
- critical aggregation concentration (CAC) ([1]; pyrene probe, I338/I335, PBS 0.01 M, pH 7.4): 149.5 µM
- particle size (DLS) after incubation at pH 6.5 for 1 h (Particle size by DLS; 40 μM, PBS 0.01 M, pH 6.5, 1 h, 25 °C): 78 ± 11 nm
- particle size (DLS) before incubation (Particle size by DLS; 40 μM, PBS 0.01 M, pH 6.5, before incubation, 25 °C): 13 ± 3 nm
- particle size change (DLS) at pH 7.4 (Particle size by DLS; 40 μM, PBS 0.01 M, pH 7.4): no obvious changes
- size (DLS) at pH 7.4 (Particle size by DLS; pH 7.4, peer review response): about 11 ± 2 nm
- Fnorm (‰), MST original data (GPX4 protein; ligand concentration 3.05176e-8 (μM)): 933.824 ‰
- Fnorm (‰), MST original data (GPX4 protein; ligand concentration 6.10352e-8 (μM)): 930.278 ‰
- Fnorm (‰), MST original data (GPX4 protein; ligand concentration 1.2207e-7 (μM)): 933.334 ‰
- Fnorm (‰), MST original data (GPX4 protein; ligand concentration 2.44141e-7 (μM)): 933.054 ‰
- Fnorm (‰), MST original data (GPX4 protein; ligand concentration 4.88281e-7 (μM)): 933.313 ‰
- Fnorm (‰), MST original data (GPX4 protein; ligand concentration 9.76563e-7 (μM)): 936.876 ‰
- Fnorm (‰), MST original data (GPX4 protein; ligand concentration 1.95313e-6 (μM)): 940.785 ‰
- Fnorm (‰), MST original data (GPX4 protein; ligand concentration 3.90625e-6 (μM)): 940.492 ‰
- Fnorm (‰), MST original data (GPX4 protein; ligand concentration 7.8125e-6 (μM)): 946.829 ‰
- Fnorm (‰), MST original data (GPX4 protein; ligand concentration 1.5625e-5 (μM)): 943.797 ‰
- Fnorm (‰), MST original data (GPX4 protein; ligand concentration 3.125e-5 (μM)): 948.084 ‰
- Fnorm (‰), MST original data (GPX4 protein; ligand concentration 6.25e-5 (μM)): 945.991 ‰
- Fnorm (‰), MST original data (GPX4 protein; ligand concentration 0.000125 (μM)): 949.08 ‰
- Fnorm (‰), MST original data (GPX4 protein; ligand concentration 0.00025 (μM)): 946.188 ‰
- Fnorm (‰), MST original data (GPX4 protein; ligand concentration 0.0005 (μM)): 949.615 ‰
- Fnorm (‰), MST original data (GPX4 protein; ligand concentration 0.001 (μM)): 948.046 ‰
- intracellular GSH levels (EJ cells [2]; EJ cells, pH 6.5, 40 μM, 8 h): substantial reduction of GSH levels
- Relative GSH levels (EJ cells [2]; pH=6.5, replicate #1): 0.188
- Relative GSH levels (EJ cells [2]; pH=6.5, replicate #2): 0.178
- Relative GSH levels (EJ cells [2]; pH=6.5, replicate #3): 0.129
- Relative GSH levels (EJ cells [2]; pH=7.4, replicate #1): 0.657
- Relative GSH levels (EJ cells [2]; pH=7.4, replicate #2): 0.628
- Relative GSH levels (EJ cells [2]; pH=7.4, replicate #3): 0.54
- Relative MDA levels (EJ cells [3]; pH=6.5, replicate #1): 4.36
- Relative MDA levels (EJ cells [3]; pH=6.5, replicate #2): 4.44
- Relative MDA levels (EJ cells [3]; pH=6.5, replicate #3): 4.68
- Relative MDA levels (EJ cells [3]; pH=7.4, replicate #1): 1.72
- Relative MDA levels (EJ cells [3]; pH=7.4, replicate #2): 1.84
- Relative MDA levels (EJ cells [3]; pH=7.4, replicate #3): 2.24
- Relative activity of GPX4 (GPX4; EJ cells, 8 h, pH 6.5, 40 μM, PBS group normalized as 1, #1): 0.12
- Relative activity of GPX4 (GPX4; EJ cells, 8 h, pH 6.5, 40 μM, PBS group normalized as 1, #2): 0.09
- Relative activity of GPX4 (GPX4; EJ cells, 8 h, pH 6.5, 40 μM, PBS group normalized as 1, #3): 0.17
- Relative activity of GPX4 (GPX4; EJ cells, 8 h, pH 7.4, PBS group normalized as 1, #1): 0.62
- Relative activity of GPX4 (GPX4; EJ cells, 8 h, pH 7.4, PBS group normalized as 1, #2): 0.73
- Relative activity of GPX4 (GPX4; EJ cells, 8 h, pH 7.4, PBS group normalized as 1, #3): 0.69
- Relative activity of GPX4 (GPX4; pH=6.5, replicate #1): 0.21
- Relative activity of GPX4 (GPX4; pH=6.5, replicate #2): 0.24
- Relative activity of GPX4 (GPX4; pH=6.5, replicate #3): 0.19
- Relative activity of GPX4 (GPX4; pH=7.4, replicate #1): 0.76
- Relative activity of GPX4 (GPX4; pH=7.4, replicate #2): 0.63
- Relative activity of GPX4 (GPX4; pH=7.4, replicate #3): 0.6
